Data published in US11046680B1, “Heteroaryl-substituted triazoles as APJ receptor agonists” (priority 2016, dated 2021).

The compounds below were run against human APJ receptor (Homo sapiens (Human), UniProt P35414) (assay: biochemical). Conditions: [35S]GTPγS binding, CHO membranes expressing human APJ receptor; read-out: Activity hAPJ SPA EC50 IP.
Assay type: biochemical
In short: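 GTPγS binding on membranes from CHO cells stably expressing FLAG-tagged human APJ, with optimized GDP, MgCl2 and NaCl; incubated 90 min at RT before imaging read-out.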

Chain of human APJ receptor (P35414 whole entry): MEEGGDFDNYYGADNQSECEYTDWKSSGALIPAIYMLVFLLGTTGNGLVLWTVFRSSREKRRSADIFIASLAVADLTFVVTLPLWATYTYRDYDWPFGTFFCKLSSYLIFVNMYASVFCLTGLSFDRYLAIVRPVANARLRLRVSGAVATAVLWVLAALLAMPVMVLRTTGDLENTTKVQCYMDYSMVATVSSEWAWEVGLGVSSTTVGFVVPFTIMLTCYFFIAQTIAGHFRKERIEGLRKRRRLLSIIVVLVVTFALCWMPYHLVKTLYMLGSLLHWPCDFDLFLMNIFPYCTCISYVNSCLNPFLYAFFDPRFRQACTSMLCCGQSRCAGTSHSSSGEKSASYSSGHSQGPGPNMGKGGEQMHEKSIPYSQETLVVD

SMILES | EC50
COc1cccc(OC)c1-n1c(NS(=O)(=O)[C@@H]2CCCN(c3ncc(F)cn3)C2)nnc1-c1ccn(C)n1 (single isomer, unassigned) [Example 261.0, (3R)-N-(4-(2,6-dimethoxyphenyl)-5-(1-methyl-1H-pyrazol-3-yl)-4H-1,2,4-triazol-3-yl)-1-(5-fluoro-2-pyrimidinyl)-3-piperidinesulfonamide or (3S)-N-(4-(2,6-dimethoxyphenyl)-5-(1-methyl-1H-pyrazol-3-yl)-4H-1,2,4-triazol-3-yl)-1-(5-fluoro-2-pyrimidinyl)-3-piperidinesulfonamide] | 190 nM
COc1cccc(OC)c1-n1c(NS(=O)(=O)[C@@H]2CCCN(c3ncc(F)cn3)C2)nnc1-c1ccn(C)n1 (single isomer, unassigned) [Example 262.0, (3R)-N-(4-(2,6-dimethoxyphenyl)-5-(1-methyl-1H-pyrazol-3-yl)-4H-1,2,4-triazol-3-yl)-1-(5-fluoro-2-pyrimidinyl)-3-piperidinesulfonamide or (3S)-N-(4-(2,6-dimethoxyphenyl)-5-(1-methyl-1H-pyrazol-3-yl)-4H-1,2,4-triazol-3-yl)-1-(5-fluoro-2-pyrimidinyl)-3-piperidinesulfonamide] | 4.8 nM
COc1cccc(OC)c1-n1c(NS(=O)(=O)[C@H](C)[C@@H](OC)c2ccc(C#N)cc2C#N)nnc1-c1ccn(C)n1 (single isomer, unassigned) [Example 265.0, (1S,2R)-1-(2,4-dicyanophenyl)-N-(4-(2,6-dimethoxyphenyl)-5-(1-methyl-1H-pyrazol-3-yl)-4H-1,2,4-triazol-3-yl)-1-methoxy-2-propanesulfonamide or (1R,2S)-1-(2,4-dicyanophenyl)-N-(4-(2,6-dimethoxyphenyl)-5-(1-methyl-1H-pyrazol-3-yl)-4H-1,2,4-triazol-3-yl)-1-methoxy-2-propanesulfonamide] | 70 nM
COc1cccc(OC)c1-n1c(NS(=O)(=O)[C@H](C)[C@@H](OC)c2ccc(C#N)cc2C#N)nnc1-c1ccn(C)n1 (single isomer, unassigned) [Example 266.0, (1S,2R)-1-(2,4-dicyanophenyl)-N-(4-(2,6-dimethoxyphenyl)-5-(1-methyl-1H-pyrazol-3-yl)-4H-1,2,4-triazol-3-yl)-1-methoxy-2-propanesulfonamide or (1R,2S)-1-(2,4-dicyanophenyl)-N-(4-(2,6-dimethoxyphenyl)-5-(1-methyl-H-pyrazol-3-yl)-4H-1,2,4-triazol-3-yl)-1-methoxy-2-propanesulfonamide] | 0.4 nM
COc1ncnc(OC)c1-n1c(NS(=O)(=O)[C@@H](C)[C@H](OC)c2ccc(Cl)cn2)nnc1-c1ccn(C)n1 (single isomer, unassigned) [Example 288.0] | 1.3 nM
Cn1ccc(-c2nnc(NS(=O)(=O)[C@@H]3C[C@H](O)CN(c4ncc(F)cn4)C3)n2-c2c(F)cccc2F)n1 (single isomer, unassigned) [Example 299.0, (3R,5S)-N-(4-(2,6-difluorophenyl)-5-(1-methyl-1H-pyrazol-3-yl)-4H-1,2,4-triazol-3-yl)-1-(5-fluoro-2-pyrimidinyl)-5-hydroxy-3-piperidinesulfonamide or (3S,5R)-N-(4-(2,6-difluorophenyl)-5-(1-methyl-1H-pyrazol-3-yl)-4H-1,2,4-triazol-3-yl)-1-(5-fluoro-2-pyrimidinyl)-5-hydroxy-3-piperidinesulfonamide] | 520 nM
Cn1ccc(-c2nnc(NS(=O)(=O)[C@@H]3C[C@@H](O)CN(c4ncc(F)cn4)C3)n2-c2c(F)cccc2F)n1 (single isomer, unassigned) [Example 300.0, (3R,5R)-N-(4-(2,6-difluorophenyl)-5-(1-methyl-1H-pyrazol-3-yl)-4H-1,2,4-triazol-3-yl)-1-(5-fluoro-2-pyrimidinyl)-5-hydroxy-3-piperidinesulfonamide or (3S,5R)-N-(4-(2,6-difluorophenyl)-5-(1-methyl-1H-pyrazol-3-yl)-4H-1,2,4-triazol-3-yl)-1-(5-fluoro-2-pyrimidinyl)-5-hydroxy-3-piperidinesulfonamide] | 55 nM
COc1cnc([C@@H](OC)[C@H](C)S(=O)(=O)Nc2nnc(-c3ccn(C)n3)n2-c2c(OC)cccc2OC)cn1 (single isomer, unassigned) [Example 308.0, (1R,2S)-N-(4-(2,6-dimethoxyphenyl)-5-(1-methyl-1H-pyrazol-3-yl)-4H-1,2,4-triazol-3-yl)-1-methoxy-1-(5-methoxy-2-pyrazinyl)-2-propanesulfonamide or (1S,2R)-N-(4-(2,6-dimethoxyphenyl)-5-(1-methyl-1H-pyrazol-3-yl)-4H-1,2,4-triazol-3-yl)-1-methoxy-1-(5-methoxy-2-pyrazinyl)-2-propanesulfonamide] | 0.58 nM
COc1cnc([C@@H](OC)[C@H](C)S(=O)(=O)Nc2nnc(-c3ccn(C)n3)n2-c2c(OC)cccc2OC)cn1 (single isomer, unassigned) [Example 309.0, (1R,2S)-N-(4-(2,6-dimethoxyphenyl)-5-(1-methyl-1H-pyrazol-3-yl)-4H-1,2,4-triazol-3-yl)-1-methoxy-1-(5-methoxy-2-pyrazinyl)-2-propanesulfonamide or (1S,2R)-N-(4-(2,6-dimethoxyphenyl)-5-(1-methyl-1H-pyrazol-3-yl)-4H-1,2,4-triazol-3-yl)-1-methoxy-1-(5-methoxy-2-pyrazinyl)-2-propanesulfonamide] | 34 nM
COc1cccc(OC)c1-n1c(NS(=O)(=O)[C@H](C)[C@H](O)c2ncc(C)cn2)nnc1-c1nc(C)cs1 (single isomer, unassigned) [Example 314.0, (1R,2R)-N-(4-(2,6-dimethoxyphenyl)-5-(4-methylthiazol-2-yl)-4H-1,2,4-triazol-3-yl)-1-hydroxy-1-(5-methylpyrimidin-2-yl)propane-2-sulfonamide or (1S,2S)-N-(4-(2,6-dimethoxyphenyl)-5-(4-methylthiazol-2-yl)-4H-1,2,4-triazol-3-yl)-1-hydroxy-1-(5-methylpyrimidin-2-yl)propane-2-sulfonamide] | 14 nM
COc1cccc(OC)c1-n1c(NS(=O)(=O)[C@H](C)[C@H](O)c2ncc(C)cn2)nnc1-c1nc(C)cs1 (single isomer, unassigned) [Example 315.0, (1R,2R)-N-(4-(2,6-dimethoxyphenyl)-5-(4-methylthiazol-2-yl)-4H-1,2,4-triazol-3-yl)-1-hydroxy-1-(5-methylpyrimidin-2-yl)propane-2-sulfonamide or (1S,2S)-N-(4-(2,6-dimethoxyphenyl)-5-(4-methylthiazol-2-yl)-4H-1,2,4-triazol-3-yl)-1-hydroxy-1-(5-methylpyrimidin-2-yl)propane-2-sulfonamide] | 0.68 nM
COc1cccc(OC)c1-n1c(NS(=O)(=O)[C@H](C)[C@H](O)c2ncc(C)cn2)nnc1-c1nc(C)cs1 (single isomer, unassigned) [Example 316.0, (1R,2R)-N-(4-(2,6-dimethoxyphenyl)-5-(4-methylthiazol-2-yl)-4H-1,2,4-triazol-3-yl)-1-hydroxy-1-(5-methylpyrimidin-2-yl)propane-2-sulfonamide or (1S,2S)-N-(4-(2,6-dimethoxyphenyl)-5-(4-methylthiazol-2-yl)-4H-1,2,4-triazol-3-yl)-1-hydroxy-1-(5-methylpyrimidin-2-yl)propane-2-sulfonamide] | 81 nM
